From patent publication US11230543B2, “Biaryl monobactam compounds and methods of use thereof for the treatment of bacterial infections” (priority 2015, dated 2022) come the findings set out here.

Structures can show the parent of a compound that is named as a salt.

The subject of assay [1] is Klebsiella pneumoniae expressing KPC-1 (CL6569). In words: Antibiotic activity: growth inhibitory concentration (OD600), Klebsiella pneumoniae CL6569. The following applies: lowest concentration inhibiting 95% of bacterial growth; in the presence of β lactamase inhibitor Relebactam 4 μg/mL; 35±2° C. for 22 hours; tested range 100 μM to 0.098 μM. It is filed as cell-based. The essentials: (§1)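 Growth inhibition by OD600 after 22 hours incubation at 35±2° C, reported as lowest concentration inhibiting 95% of growth (MITC95). Final compound range 100 μM to 0.098 μM, always combined with β-lactamase inhibitor relebactam (4 μg/mL final); inoculum ~2×10^5 CFU/mL in cation-adjusted Mueller-Hinton II broth.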

In assay [2] the test system is Pseudomonas aeruginosa expressing AmpC (CL5701). In words: Antibiotic activity: growth inhibitory concentration (OD600), Pseudomonas aeruginosa CL5701. It is filed as cell-based. The following applies: lowest concentration inhibiting 95% of bacterial growth; in the presence of β lactamase inhibitor Relebactam 4 μg/mL; 35±2° C. for 22 hours; tested range 100 μM to 0.098 μM. Put shortly:
as §1

On to `C[n+]1cc(-c2ccc(OC[C@H](O/N=C(\C(=O)N[C@@H]3C(=O)N(OS(=O)(=O)[O-])C3(C)C)c3csc(N)n3)C(=O)O)cc2)cnc1N(CCN)CC1CNC1` [Example 83, (S)-3-((Z)-2-(((S)-2-(4-(2-((2-aminoethyl)(azetidin-3-ylmethyl)amino)-1-methylpyrimidin-1-ium-5-yl)phenoxy)-1-carboxyethoxy)imino)-2-(2-aminothiazol-4-yl)acetamido)-2,2-dimethyl-4-oxoazetidin-1-yl sulfate], for which the “KP_CL6569 MITC95” value in assay [1] was 0.1953 µM. Further, in assay [2], the “PA_CL5701 MITC95” value was 1.563 µM.
Taken in the same sequence, the figures for `COC(=O)[C@H](COc1ccc(-c2cn(CCCN)[n+](C)c2)cc1)O/N=C(\C(=O)N[C@@H]1C(=O)N(OS(=O)(=O)[O-])C1(C)C)c1csc(N)n1` [Example 117, (S)-3-((Z)-2-((((S)-3-(4-(1-(3-aminopropyl)-2-methyl-1H-pyrazol-2-ium-4-yl)phenoxy)-1-methoxy-1-oxopropan-2-yl)oxy)imino)-2-(2-aminothiazol-4-yl)acetamido)-2,2-dimethyl-4-oxoazetidin-1-yl sulfate] were 3.125 µM and 25 µM.
Turning to `Cc1cc(-c2ccc(OC[C@H](O/N=C(\C(=O)N[C@@H]3C(=O)N(OS(=O)(=O)O)C3(C)C)c3csc(N)n3)C(=O)O)cc2)[n+](C)n1CCCN.O=C([O-])C(F)(F)F` [Example 22, 1-(3-aminopropyl)-3-(4-((S)-2-((((Z)-1-(2-aminothiazol-4-yl)-2-(((S)-2,2-dimethyl-4-oxo-1-(sulfooxy)azetidin-3-yl)amino)-2-oxo-ethylidene)amino)oxy)-2-carboxyethoxy)phenyl)-2,5-dimethyl-1H-pyrazol-2-ium 2,2,2-trifluoroacetate], in assay [1], the “KP_CL6569 MITC95” value amounted to 0.7813 µM. In addition, the “PA_CL5701 MITC95” value in assay [2] turned out to be 25 µM.
Taken in the same sequence, the figures for `CC1(C)[C@H](NC(=O)/C(=N\O[C@@H](COc2ccc(-n3cc[n+](CCC[N+](C)(C)C)c3)nc2)C(=O)O)c2csc(N)n2)C(=O)N1OS(=O)(=O)O` [Example 110, (S)-3-((Z)-2-(2-aminothiazol-4-yl)-2-(((S)-1-carboxy-2-((6-(3-(3-(trimethylammonio)propyl)-1H-imidazol-3-ium-1-yl)pyridin-3-yl)oxy)ethoxy)imino)acetamido)-2,2-dimethyl-4-oxoazetidin-1-yl sulfate] were 1.563 µM and 50 µM.
Take `C[n+]1cn(CCCN)cc1-c1ccc(OC[C@H](O/N=C(\C(=O)NC2C(=O)N(OS(=O)(=O)[O-])C2(C)C)c2csc(N)n2)C(=O)O)cc1` (stereo partly drawn) [Example 2, (S)-3-((Z)-2-(2-aminothiazol-4-yl)-2-(((S)-2-(4-(1-(3-ammoniopropyl)-3-methyl-1H-imidazol-3-ium-4-yl)phenoxy)-1-carboxyethoxy)imino)acetamido)-2,2-dimethyl-4-oxoazetidin-1-yl-sulfate]: the “KP_CL6569 MITC95” value in assay [1] stood at 0.3906 µM. For the same molecule, the “PA_CL5701 MITC95” value in assay [2] was determined as 3.125 µM.
Regarding `C[n+]1ccc(-c2ccc(OC[C@H](O/N=C(\C(=O)N[C@@H]3C(=O)N(OS(=O)(=O)[O-])C3(C)C)c3csc(N)n3)C(=O)O)cc2)cc1NCCN` [Example 62, (S)-3-((Z)-2-(((S)-2-(4-(2-((2-aminoethyl)amino)-1-methylpyridin-1-ium-4-yl)phenoxy)-1-carboxyethoxy)imino)-2-(2-aminothiazol-4-yl)acetamido)-2,2-dimethyl-4-oxoazetidin-1-yl sulfate], the “KP_CL6569 MITC95” value in assay [1] is 0.36 µM. Further, the “PA_CL5701 MITC95” value in assay [2] turned out to be 5.8 µM.
Consider `C[n+]1cc(-c2ccc(OC(CO/N=C(\C(=O)N[C@@H]3C(=O)N(OS(=O)(=O)[O-])C3(C)C)c3csc(N)n3)C(=O)O)cc2)cn1CCCN` (single isomer, unassigned) [Example 85], for which, in assay [1], the “KP_CL6569 MITC95” value amounted to 2.5 µM. Further, the “PA_CL5701 MITC95” value in assay [2] stood at 40 µM.
Taken in the same sequence, the figures for `C[n+]1cc(-c2ccc(OCCO/N=C(\C(=O)N[C@@H]3C(=O)N(OS(=O)(=O)O)C3(C)C)c3csc(N)n3)cc2)cn1CCCN` [Example 4, (S,Z)-3-(2-((2-(4-(1-(3-aminopropyl)-2-methyl-1H-pyrazol-2-ium-4-yl)phenoxy)ethoxy)imino)-2-(2-aminothiazol-4-yl)acetamido)-2,2-dimethyl-4-oxoazetidin-1-yl sulfate] were 1.281 µM and 25 µM.
Taken in the same sequence, the figures for `C[n+]1cc(-c2ccc(OC[C@H](O/N=C(\C(=O)N[C@@H]3C(=O)N(OS(=O)(=O)[O-])C3(C)C)c3nc(N)sc3Cl)C(=O)O)cc2)ccc1NCCN` [Example 67, (S)-3-((Z)-2-(2-amino-5-chlorothiazol-4-yl)-2-(((S)-2-(4-(6-((2-aminoethyl)amino)-1-methylpyridin-1-ium-3-yl)phenoxy)-1-carboxyethoxy)imino)acetamido)-2,2-dimethyl-4-oxoazetidin-1-yl sulfate] were 0.7813 µM and 6.25 µM.
Consider `C[n+]1cc(-c2ccc(OC[C@H](O/N=C(\C(=O)N[C@@H]3C(=O)N(OS(=O)(=O)O)C3(C)C)c3csc(N)n3)C(=O)O)cc2F)cn1CC(N)CN` (single isomer, unassigned) [Example 45], for which the “KP_CL6569 MITC95” value in assay [1] came out at 0.3906 µM. The “PA_CL5701 MITC95” value in assay [2] turned out to be 6.25 µM.
As to `CC1(C)[C@H](NC(=O)/C(=N\O[C@@H](COc2ccc(-c3cn(CCCN)c(N)n3)cc2)C(=O)O)c2csc(N)n2)C(=O)N1OS(=O)(=O)O.O=C(O)C(F)(F)F` [Example 31, 3-(2-amino-4-(4-((S)-2-((((Z)-1-(2-aminothiazol-4-yl)-2-(((S)-2,2-dimethyl-4-oxo-1-(sulfooxy)azetidin-3-yl)amino)-2-oxoethylidene)amino)oxy)-2-carboxyethoxy)phenyl)-1H-imidazol-1-yl)propan-1-aminium 2,2,2-trifluoroacetate], the “KP_CL6569 MITC95” value in assay [1] worked out at 0.3906 µM. Further, the “PA_CL5701 MITC95” value in assay [2] was 3.125 µM.
As to `C[C@H]1[C@H](NC(=O)/C(=N\O[C@@H](COc2ccc(-c3cnn(CCCN)c3)cc2)C(=O)O)c2csc(N)n2)C(=O)N1S(=O)(=O)O` [Example 6, (S)-3-(4-(1-(3-aminopropyl)-1H-pyrazol-4-yl)phenoxy)-2-((((Z)-1-(2-aminothiazol-4-yl)-2-(((2S,3S)-2-methyl-4-oxo-1-sulfoazetidin-3-yl)amino)-2-oxoethylidene)amino)oxy)propanoic acid], in assay [1], the “KP_CL6569 MITC95” value stood at 12.5 µM. Besides, in assay [2], the “PA_CL5701 MITC95” value came to 100 µM.
Taken in the same sequence, the figures for `C[n+]1cc(-c2c(F)cc(OC[C@H](O/N=C(\C(=O)N[C@@H]3C(=O)N(OS(=O)(=O)O)C3(C)C)c3csc(N)n3)C(=O)O)cc2F)cn1CCCN.O=C(O)C(F)(F)F` [Example 3, (S)-3-((Z)-2-(((S)-2-(4-(1-(3-aminopropyl)-2-methyl-1H-pyrazol-2-ium-4-yl)-3,5-difluorophenoxy)-1-carboxyethoxy)imino)-2-(2-aminothiazol-4-yl)acetamido)-2,2-dimethyl-4-oxoazetidin-1-yl sulfate compound with 2,2,2-trifluoroacetic acid (1:1)] were 0.39 µM and 6.25 µM.
Taken in the same sequence, the figures for `C[C@@H]1[C@H](NC(=O)/C(=N\O[C@@](C)(COc2ccc(-c3cn(CCCN)[n+](C)c3)cc2)C(=O)O)c2csc(N)n2)C(=O)N1S(=O)(=O)O.O=C([O-])C(F)(F)F` [Example 25, 1-(3-aminopropyl)-4-(4-((S)-2-((((Z)-1-(2-aminothiazol-4-yl)-2-(((2R,3S)-2-methyl-4-oxo-1-sulfoazetidin-3-yl)amino)-2-oxoethylidene)amino)oxy)-2-carboxypropoxy)phenyl)-2-methyl-1H-pyrazol-2-ium 2,2,2-trifluoroacetate] were 0.3906 µM and 3.125 µM.
`C[n+]1cc(NCCN)ccc1-c1ccc(OC[C@H](O/N=C(\C(=O)N[C@@H]2C(=O)N(OS(=O)(=O)[O-])C2(C)C)c2csc(N)n2)C(=O)O)cc1` [Example 72, (S)-3-((Z)-2-(((S)-2-(4-(5-((2-aminoethyl)amino)-1-methylpyridin-1-ium-2-yl)phenoxy)-1-carboxyethoxy)imino)-2-(2-aminothiazol-4-yl)acetamido)-2,2-dimethyl-4-oxoazetidin-1-yl sulfate]: the “KP_CL6569 MITC95” value in assay [1] turned out to be 0.3906 µM. The “PA_CL5701 MITC95” value in assay [2] turned out to be 6.25 µM.
Taken in the same sequence, the figures for `CC1(C)[C@H](NC(=O)/C(=N\O[C@@](C)(COc2ccc(C3CN=C(NCCN)NC3)cc2)C(=O)O)c2csc(N)n2)C(=O)N1OS(=O)(=O)O` (stereo partly drawn) [Example 95, (2S)-3-(4-(2-((2-aminoethyl)amino)-1,4,5,6-tetrahydropyrimidin-5-yl)phenoxy)-2-((((Z)-1-(2-aminothiazol-4-yl)-2-(((S)-2,2-dimethyl-4-oxo-1-(sulfooxy)azetidin-3-yl)amino)-2-oxoethylidene)amino)oxy)-2-methylpropanoic acid] were 0.3906 µM and 3.125 µM.
